Results: patent US11873298B2, “Compounds and uses thereof” (JANSSEN PHARMACEUTICA NV, priority 2017, dated 2024)

How the values were obtained:
SCD1 = molecular target: T1, SCD1 (Homo sapiens, UniProt O00767); assay: Growth inhibition of humanized yeast strain expressing SCD1 as sole desaturase; format: cell-based; conditions: humanized yeast strain, 40 h
T1 construct: host or cells: S. cerevisiae ole1Δ strain (W303 pdr1Δ pdr3Δ background), plasmid pRS316 with TDH3 promoter and CYC1 terminator
T1 sequence (O00767 1-359): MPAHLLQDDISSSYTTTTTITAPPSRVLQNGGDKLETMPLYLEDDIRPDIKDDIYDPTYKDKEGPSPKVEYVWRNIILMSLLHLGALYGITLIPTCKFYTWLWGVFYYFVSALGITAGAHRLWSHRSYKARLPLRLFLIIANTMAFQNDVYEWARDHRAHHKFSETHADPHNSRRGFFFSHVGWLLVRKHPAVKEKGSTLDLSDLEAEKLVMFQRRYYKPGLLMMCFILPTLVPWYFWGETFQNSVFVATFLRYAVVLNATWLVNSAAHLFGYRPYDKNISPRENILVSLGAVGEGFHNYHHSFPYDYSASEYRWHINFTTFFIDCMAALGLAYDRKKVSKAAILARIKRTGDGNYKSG
Summary of the method: (§1)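 OD600 growth read-out. ole1Δ yeast, pdr1Δ pdr3Δ, with Ole1/SCD1/SCD5 on a plasmid; SX-Ura media throughout; 2× cell density 0.02 in CSM-Galactose; DMSO compound dilutions; humidified 30° C.; Ole1 stopped at 24 h, SCD1/SCD5 at 40 h.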

SCD5 = molecular target: T2, SCD5 (Homo sapiens, UniProt Q86SK9); assay: Growth inhibition of humanized yeast strain expressing SCD5 as sole desaturase; format: cell-based; conditions: humanized yeast strain, 40 h
T2 construct: host or cells: S. cerevisiae ole1Δ strain (W303 pdr1Δ pdr3Δ background), plasmid pRS316 with TDH3 promoter and CYC1 terminator
T2 sequence (Q86SK9 1-330): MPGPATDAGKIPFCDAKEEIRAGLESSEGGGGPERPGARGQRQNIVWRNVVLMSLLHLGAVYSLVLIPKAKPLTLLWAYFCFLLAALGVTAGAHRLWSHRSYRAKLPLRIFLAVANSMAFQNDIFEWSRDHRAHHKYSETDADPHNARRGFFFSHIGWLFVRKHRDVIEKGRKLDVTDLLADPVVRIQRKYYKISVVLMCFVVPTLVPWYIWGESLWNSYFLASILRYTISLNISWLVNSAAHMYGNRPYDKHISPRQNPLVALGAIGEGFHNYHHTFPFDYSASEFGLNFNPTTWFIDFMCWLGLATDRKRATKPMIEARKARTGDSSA
Summary of the method: as §1

| SMILES | IC50 (SCD1) | IC50 (SCD5) |
| --- | --- | --- |
| O=C(N1CCC(c2noc(-c3cnc4cnn(C5COC5)c4c3)n2)CC1)C1(F)CC1 [Compound 1140] | > 45 µM | 0.0613 µM |
| O=C1CC(c2noc(-c3ccc4cnn(C5COC5)c4c3)n2)CCN1CC1CC1 (centres unmarked) [Compound 1141] | > 45 µM | 0.865 µM |
| CN1CC2CN(c3nc(-c4ccc5cnn(C6COC6)c5c4)no3)CCN2C1=O (centres unmarked) [Compound 1142] | > 45 µM | > 45 µM |
| CN1CC2CN(c3nc(-c4ccc5cn(C6COC6)nc5c4)no3)CCN2C1=O (centres unmarked) [Compound 1143] | > 45 µM | > 45 µM |
| CC(C)(C)OC(=O)N1CCC(c2cc(-c3cc4c(cn3)cnn4C3COC3)no2)CC1 [Compound 1144] | 1.78 µM | 0.01 µM |
| CC(C)(C)OC(=O)N1CCC(c2noc(-c3ccccc3N3CCOCC3)n2)CC1 [Compound 1145] | > 45 µM | 11.1 µM |
| CC(C)n1ncc2ccc(-c3nc(C4CCN(CC5CC5)C(=O)C4)no3)cc21 (centres unmarked) [Compound 1146] | > 45 µM | 0.38 µM |
| CCC(=O)N1CCC(c2cc(-c3cc4c(cn3)cnn4C3COC3)no2)CC1 [Compound 1147] | > 45 µM | 5.46 µM |
| O=C(N1CCN(c2noc(-c3ccnc(NC4COC4)c3)n2)CC1)C1(F)CC1 [Compound 1148] | > 45 µM | 19.4 µM |
| CC(C)(C)OC(=O)N1CCC(c2noc(-c3ccc(F)c(N4CCOCC4)c3)n2)CC1 [Compound 1149] | > 45 µM | 0.01 µM |
| CC(C)(C)OC(=O)N1CCC(c2noc(-c3ccc(N4CCOCC4)cc3)n2)CC1 [Compound 1150] | > 45 µM | > 45 µM |
| CC1(OC(=O)N2CCC(c3noc(-c4ccnc(NC5COC5)c4)n3)CC2)CC1 [Compound 1151] | > 45 µM | 1.09 µM |
| CC(C)(C)OC(=O)N1CCC(c2noc(-c3cccc(C4CCO4)c3)n2)CC1 (centres unmarked) [Compound 1152] | > 45 µM | 0.01 µM |
| CC(C)C(=O)N1CCC(c2noc(-c3ccnc(NC4COC4)c3)n2)CC1 [Compound 1153] | 1.94 µM | 0.84 µM |
| CC(C)(C)OC(=O)N1CCC(c2noc(-c3cccc(N4CCOCC4)c3F)n2)CC1 [Compound 1154] | > 45 µM | 0.0157 µM |
| CC(C)C(=O)N1CCC(c2noc(-c3ccnc(N(C)C4COC4)c3)n2)CC1 [Compound 1155] | > 45 µM | > 45 µM |
| CC(C)(C)OC(=O)N1CCC(c2noc(-c3cc(N4CCOCC4)ccc3F)n2)CC1 [Compound 1156] | > 45 µM | 0.493 µM |
| O=C(c1ccccc1F)N1CCC(c2noc(-c3ccnc(NC4COC4)c3)n2)CC1 [Compound 1157] | > 45 µM | > 45 µM |
| CN(c1cc(-c2nc(C3CCN(C(=O)OC4(C)CC4)CC3)no2)ccn1)C1COC1 [Compound 1158] | > 45 µM | 3.5 µM |
| CCC(=O)N1CCC(c2noc(-c3cccc(N4CCOCC4)c3F)n2)CC1 [Compound 1159] | > 45 µM | > 45 µM |
| CC(C)C(=O)N1CCC(c2noc(-c3cccc(N4CCOCC4)c3F)n2)CC1 [Compound 1160] | > 45 µM | > 45 µM |
| COC(=O)N1CCC(c2noc(-c3ccc(F)c(N4CCOCC4)c3)n2)CC1 [Compound 1161] | > 45 µM | 0.0363 µM |
| CC(C)C(=O)N1CCC(c2noc(-c3ccc(F)c(N4CCOCC4)c3)n2)CC1 [Compound 1162] | 17.2 µM | 0.0206 µM |
| COC(=O)N1CCC(c2noc(-c3ccc(N4CCOCC4)cc3)n2)CC1 [Compound 1163] | > 45 µM | > 45 µM |
| CCC(=O)N1CCC(c2noc(-c3ccc(F)c(N4CCOCC4)c3)n2)CC1 [Compound 1164] | > 45 µM | 0.54 µM |

| SMILES | IC50 (SCD1) | IC50 (SCD5) |
| --- | --- | --- |
| CC(C)C(=O)N1CCC(c2nc(-c3ccc(N4CCOCC4)cc3)no2)CC1 [Compound 1165] | > 45 µM | > 45 µM |
| CCC(=O)N1CCC(c2noc(-c3ccc(N4CCOCC4)cc3)n2)CC1 [Compound 1166] | > 45 µM | > 45 µM |
| CC(C)C(=O)N1CCC(c2noc(-c3ccccc3N3CCOCC3)n2)CC1 [Compound 1167] | > 45 µM | > 45 µM |
| CCC(=O)N1CCC(c2noc(-c3ccccc3N3CCOCC3)n2)CC1 [Compound 1168] | > 45 µM | > 45 µM |
| COC(=O)N1CCC(c2noc(-c3ccccc3N3CCOCC3)n2)CC1 [Compound 1169] | 15.4 µM | > 45 µM |
| CC(C)C(=O)N1CCC(c2noc(-c3ccnc(N4CCC(F)(F)C4)c3)n2)CC1 [Compound 1170] | > 45 µM | 0.402 µM |
| CC1(OC(=O)N2CCC(c3noc(-c4ccnc(N5CCC(F)(F)C5)c4)n3)CC2)CC1 [Compound 1171] | 1.14 µM | 0.0311 µM |
| CC(C)(C)OC(=O)N1CCC(c2noc(N3CCc4nn(C5COC5)cc4C3)n2)CC1 [Compound 1172] | ≥ 45 µM | 9.89 µM |
| CC(C)(C)OC(=O)N1CCC(c2noc(N3CCc4c(cnn4C4COC4)C3)n2)CC1 [Compound 1173] | ≥ 45 µM | 23.4 µM |
| CC(C)C(=O)N1CCC(c2noc(-c3cncc(N4CCC(F)(F)C4)c3)n2)CC1 [Compound 1174] | > 45 µM | 10.4 µM |
| CC(C)(C(=O)N1CCC(c2noc(-c3ccnc(C4CCOC4)c3)n2)CC1)C(F)(F)F (centres unmarked) [Compound 1175] | > 45 µM | 0.21 µM |
| O=C(N1CCC(c2noc(-c3ccnc(C4CCOC4)c3)n2)CC1)C1(C(F)(F)F)CCC1 (centres unmarked) [Compound 1176] | > 45 µM | 0.14 µM |
| O=C(N1CCC(c2noc(-c3ccnc(C4CCOC4)c3)n2)CC1)C1(C(F)(F)F)CC1 (centres unmarked) [Compound 1177] | > 45 µM | 0.84 µM |
| CC1(C(=O)N2CCC(c3noc(-c4ccnc(C5CCOC5)c4)n3)CC2)CC1 (centres unmarked) [Compound 1178] | > 45 µM | 0.63 µM |
| CC1(C(=O)N2CCC(c3noc(-c4ccnc(C5CCOC5)c4)n3)CC2)CCC1 (centres unmarked) [Compound 1179] | > 45 µM | 0.11 µM |
| O=C(C1CCC1)N1CCC(c2noc(-c3ccnc(C4CCOC4)c3)n2)CC1 (centres unmarked) [Compound 1180] | > 45 µM | 0.06 µM |
| CC(C)(C)OC(=O)N1CCC(c2noc(-c3cncc(N4CCC(F)(F)C4)c3)n2)CC1 [Compound 1181] | > 45 µM | 0.47 µM |
| Cn1cc(-c2cc(-c3nc(C4CCN(C(=O)OC(C)(C)C)CC4)no3)ccn2)cn1 [Compound 1182] | 0.83 µM | 0.72 µM |
| Cn1ccc(-c2cc(-c3nc(C4CCN(C(=O)OC(C)(C)C)CC4)no3)ccn2)n1 [Compound 1183] | > 45 µM | > 45 µM |
| CC(C)C(=O)N1CCC(c2noc(-c3ccnc(-c4ccn(C)n4)c3)n2)CC1 [Compound 1184] | > 45 µM | > 45 µM |
| Cn1ccc(-c2cc(-c3nc(C4CCN(C(=O)OC5(C)CC5)CC4)no3)ccn2)n1 [Compound 1185] | > 45 µM | > 45 µM |
| Cn1cc(-c2cc(-c3nc(C4CCN(C(=O)OC5(C)CC5)CC4)no3)ccn2)cn1 [Compound 1186] | 10 µM | 6.08 µM |
| CC(C)C(=O)N1CCC(c2noc(-c3ccnc(-c4cnn(C)c4)c3)n2)CC1 [Compound 1187] | > 45 µM | > 45 µM |
| CC(C)C(=O)N1CCC(c2noc(-c3cccc(C4CCOC4)n3)n2)CC1 (centres unmarked) [Compound 1188] | > 45 µM | > 45 µM |
